Common to all, as to experiment: microbe, parasite or virus in culture
In assay [1] the test system is EBOV-GFP (recombinant Ebola Zaire virus expressing green fluorescence protein). In kind it is cell-based. To be noted: for inhibition at 20 µM: Zaire ebolavirus, Vero C1008, 48 h, read-out: EBOV % Inhibition (20 μM).
The subject of a further assay is EBOV-GFP. Format: cell-based, Ebola Zaire virus.
For assay [2], the system named is MPXV-GFP (recombinant monkeypox virus expressing GFP, Zaire strain). In kind it is cell-based. Particulars: Vero C1008, in Primates, 48 h, read-out: Monkey Pox % Inhibition (20 μM).

Like-named read-outs stand apart in the source and are kept apart here.

The inhibition is the percentage by which the read-out fell short of the control. Take `CCN(CC)CCCNc1nc(C)cc(Nc2ccc3nc(C)cc(N)c3c2)n1` [NSC 23767, N^6-(2-((3-(diethylamino)propyl)amino)-6-methyl-4-pyrimidinyl)-2-methyl-4,6-quinolinediamine]: the inhibition at 20 µM in assay [1] worked out at 74.1%.
For the compound `O=C1C(SCCO)=C(SCCO)C(=O)c2ccccc21` [NSC 95397, 2,3-bis((2-hydroxyethyl)thio)naphthoquinone], in assay [1], the “EBOV % Inhibition (20 μM)” value is listed as 75.3%.
What is called IC50 is the midpoint of a concentration-inhibition curve. As for `CC(=O)NC1=C(Sc2ccc(Cl)cc2)C(=O)c2ccccc2C1=O` [NSC 128981, N-(3-((4-chlorophenyl)thio)-1,4-dioxo-1,4-dihydro-2-naphthalenyl)acetamide], the inhibition at 20 µM in assay [1] worked out at 97.7%. The half-inhibitory concentration (IC50) in the assay with EBOV-GFP (Zaire ebolavirus, Vero C1008, read-out: IC50 (read from graphs of % of control infection)) was ~15 µM.
On to `N=C(N)c1ccc(-c2cc3ccc(C(=N)N)cc3s2)cc1` [NSC 240890, 2-(4-carbamimidoylphenyl)benzothiophene-6-carboximidamide; 2-hydroxypropanoic acid], for which the inhibition at 20 µM in assay [1] stood at 54.9%; in assay [2] it was 46.7%.
In the same order, the values of `N=C(N)c1ccc(-c2cc3cc(C(=N)N)ccc3s2)cc1` [NSC 240891, 2-(4-carbamimidoylphenyl)benzothiophene-5-carboximidamide] are 40.3% and 99.4%.
Consider `N=C(N)c1ccc(-c2nc3ccc(C(=N)N)cc3[nH]2)cc1` [NSC 240894, 2-(4-carbamimidoylphenyl)-3H-benzoimidazole-5-carboximidamide], for which the inhibition at 20 µM in assay [2] came out at 89.7%.
On to `N=C(N)c1ccc(-n2cc3cc(C(=N)N)ccc3n2)cc1` [NSC 240895, 2-(4-carbamimidoylphenyl)indazole-5-carboximidamide], for which the inhibition at 20 µM in assay [1] came to 32.2%; in assay [2], 99.7%.
With `N=C(N)c1ccc(Oc2ccc(-c3cc4ccc(C(=N)N)cc4[nH]3)cc2)cc1` [NSC 240898, 2-[4-(4-carbamimidoylphenoxy)phenyl]-1H-indole-6-carboximidamide], the inhibition at 20 µM in assay [2] was 98.1%.
On the same count and under the same terms, then `N=C(N)c1ccc(-c2cc(-c3ccc(C(=N)N)cc3)on2)cc1` [NSC 240900, 4-[3-(4-carbamimidoylphenyl)oxazol-5-yl]benzenecarboximidamide], with 79.9%.
As to `Cc1c2ccncc2c(C)c2c1[nH]c1ccc(O)cc12` [NSC 264136, 5,11-dimethyl-6H-pyrido[4,3-b]carbazol-9-ol], in assay [1], the inhibition at 20 µM came to 63.1%.
Same read-out and setting: the result for `N=C(N)c1ccc2oc(/C=C/c3cc4cc(C(=N)N)ccc4s3)cc2c1` [NSC 266472, 2-[(E)-2-(5-carbamimidoylbenzothiophen-2-yl)ethenyl]benzofuran-5-carboximidamide] reads 67.5%.
For the compound `c1cc(-c2cc3ccc(C4=NCCN4)cc3[nH]2)ccc1C1=NCCN1` [NSC 278995, 6-(4,5-dihydro-1H-imidazol-2-yl)-2-[4-(4,5-dihydro-1H-imidazol-2-yl)phenyl]-1H-indole], the inhibition at 20 µM in assay [2] turned out to be 99.3%.
In the case of `C(=C\c1cc2cc(C3=NCCN3)ccc2o1)/c1cc2cc(C3=NCCN3)ccc2o1` [NSC 278999, 2-[2-[(E)-2-[5-(4,5-dihydro-1H-imidazol-2-yl)benzofuran-2-yl]ethenyl]benzofuran-5-yl]-4,5-dihydro-1H-imidazole], in assay [1], the inhibition at 20 µM is 55.6%.
Same read-out and setting: then `N=C(N)c1ccc2[nH]c(/C=C/c3cc4cc(C(=N)N)ccc4o3)cc2c1` [NSC 290107, 2-[(E)-2-(5-carbamimidoylbenzofuran-2-yl)ethenyl]-1H-indole-5-carboximidamide], with 33.6%.
As for `C(=C\c1cc2cc(C3=NCCN3)ccc2o1)/c1cc2cc(C3=NCCN3)ccc2[nH]1` [NSC 290108, 5-(4,5-dihydro-1H-imidazol-2-yl)-2-[(E)-2-[5-(4,5-dihydro-1H-imidazol-2-yl)benzofuran-2-yl]ethenyl]-1H-indole], the inhibition at 20 µM in assay [1] came to 45%; in assay [2] it was 45.1%.
Regarding `O=C(Nc1ccc(C2=NCCN2)cc1)c1cc2cc(C3=NCCN3)ccc2o1` [NSC 290111, 5-(4,5-dihydro-1H-imidazol-2-yl)-N-[4-(4,5-dihydro-1H-imidazol-2-yl)phenyl]benzofuran-2-carboxamide], the inhibition at 20 µM in assay [1] stood at 40%.
As to `N=C(N)c1ccc2cc(/C=C/c3cc4ccc(C(=N)N)cc4o3)oc2c1` [NSC 294199, 2-[(E)-2-(6-carbamimidoylbenzofuran-2-yl)ethenyl]benzofuran-6-carboximidamide], the inhibition at 20 µM was 68.8% in assay [1] and 40.9% in assay [2].
Turning to `O=C(Nc1ccc(C2=NCCN2)cc1)c1cc2ccc(C3=NCCN3)cc2[nH]1` [NSC 294206, 6-(4,5-dihydro-1H-imidazol-2-yl)-N-[4-(4,5-dihydro-1H-imidazol-2-yl)phenyl]-1H-indole-2-carboxamide], the inhibition at 20 µM in assay [1] was 61.5%; in assay [2], 86%. For the same compound, the “dose dependent antiviral activity toward EBOV-GFP” value in the assay with EBOV-GFP is on record as “dose dependent antiviral activity”.
Turning to `O=C(Nc1ccc(C2=NCCN2)cc1)c1cc2ccc(C3=NCCN3)cc2o1` [NSC 294208, 6-(4,5-dihydro-1H-imidazol-2-yl)-N-[4-(4,5-dihydro-1H-imidazol-2-yl)phenyl]benzofuran-2-carboxamide], the inhibition at 20 µM in assay [1] was 38.8%.
On to `N=C(N)c1ccc(-c2[nH]c3cc(C(=N)N)ccc3c2N)cc1` [NSC 300509, 3-amino-2-(4-carbamimidoylphenyl)-1H-indole-6-carboximidamide], for which the inhibition at 20 µM in assay [2] came out at 84.9%.
As to `N=C(N)c1ccc(-c2ccc(-c3ccc(C(=N)N)cc3)s2)cc1` [NSC 300510, 4-[5-(4-carbamimidoylphenyl)thiophen-2-yl]benzenecarboximidamide], the inhibition at 20 µM in assay [1] was determined as 59.7%; in assay [2], 89.9%. Moreover, the “dose dependent antiviral activity toward EBOV-GFP” value in the assay with EBOV-GFP is given as “dose dependent antiviral activity”.
Turning to `N=C(N)c1ccc2oc(/C=C/C=C/c3cc4cc(C(=N)N)ccc4o3)cc2c1` [NSC 300511, 2-[(1E,3E)-4-(5-carbamimidoylbenzofuran-2-yl)buta-1,3-dienyl]benzofuran-5-carboximidamide], the inhibition at 20 µM in assay [1] was 49.2%.
In the case of `c1cc(-c2cc3cc(C4=NCCN4)ccc3s2)ccc1C1=NCCN1` [NSC 308569, 2-[2-[4-(4,5-dihydro-1H-imidazol-2-yl)phenyl]benzothiophen-5-yl]-4,5-dihydro-1H-imidazole], the inhibition at 20 µM in assay [1] was determined as 35.3%; in assay [2] it was 95.8%.
For the compound `C(=C\c1cc2cc(C3=NCCN3)ccc2o1)/c1ccc(C2=NCCN2)cc1` [NSC 308570, 2-[2-[(E)-2-[4-(4,5-dihydro-1H-imidazol-2-yl)phenyl]ethenyl]benzofuran-5-yl]-4,5-dihydro-1H-imidazole], in assay [1], the inhibition at 20 µM amounted to 30.7%.
Still for that read-out and setting: the result for `C(/C=C/c1cc2cc(C3=NCCN3)ccc2o1)=C\c1cc2cc(C3=NCCN3)ccc2o1` [NSC 308571, 2-[2-[(1E,3E)-4-[5-(4,5-dihydro-1H-imidazol-2-yl)benzofuran-2-yl]buta-1,3-dienyl]benzofuran-5-yl]-4,5-dihydro-1H-imidazole] reads 61.2%; that for `N=C(N)c1ccc(/C=C/C=C/c2cc3cc(C(=N)N)ccc3o2)cc1` [NSC 308572, 2-[(1E,3E)-4-(4-carbamimidoylphenyl)buta-1,3-dienyl]benzofuran-5-carboximidamide], 32.8%; that for `C(/C=C/c1cc2cc(C3=NCCN3)ccc2o1)=C\c1ccc(C2=NCCN2)cc1` [NSC 308573, 2-[2-[(1E,3E)-4-[4-(4,5-dihydro-1H-imidazol-2-yl)phenyl]buta-1,3-dienyl]benzofuran-5-yl]-4,5-dihydro-1H-imidazole], 54.2%.
Turning to `c1cc2cc(-c3cc4ccc(C5=NCCN5)cc4[nH]3)[nH]c2cc1C1=NCCN1` [NSC 330688, 6-(4,5-dihydro-1H-imidazol-2-yl)-2-[6-(4,5-dihydro-1H-imidazol-2-yl)-1H-indol-2-yl]-1H-indole], the inhibition at 20 µM in assay [1] was 51.3%; in assay [2] it was 84.9%.
Take `N=C(N)c1ccc2c(c1)=NC(=C(N)N)C=2` [NSC 330689, 2-(diaminomethylidene)indole-6-carboximidamide]: the inhibition at 20 µM in assay [2] was found to be 89.9%.
Consider `NC(N)=NN=Cc1ccc2cc(-c3ccc(/C=N/N=C(N)N)cc3)sc2c1` [NSC 341909, 2-[[2-[4-[(E)-(diaminomethylidenehydrazinylidene)methyl]phenyl]benzothiophen-6-yl]methylideneamino]guanidine], for which the inhibition at 20 µM in assay [1] stood at 57.5%; in assay [2], 95.8%.
As for `c1cc(-c2[nH]c3cc(C4=NCCN4)ccc3c2-c2cc3ccc(C4=NCCN4)cc3[nH]2)ccc1C1=NCCN1` [NSC 341911, 6-(4,5-dihydro-1H-imidazol-2-yl)-3-[6-(4,5-dihydro-1H-imidazol-2-yl)-1H-indol-2-yl]-2-[4-(4,5-dihydro-1H-imidazol-2-yl)phenyl]-1H-indole], the inhibition at 20 µM in assay [1] was 33.2%.
As to `c1cc(-c2[nH]c3cc(C4=NCCN4)ccc3c2-c2cc3ccc(C4=NCCN4)cc3[nH]2)ccc1C1=NCCN1` [NSC 352341, 6-(4,5-dihydro-1H-imidazol-2-yl)-3-[6-(4,5-dihydro-1H imidazol-2-yl)-1H-indol-2-yl]-2-[4-(4,5-dihydro-1H-imidazol-2-yl)phenyl]-1H-indole], in assay [1] (20 µM), the “EBOV % Inhibition (20 μM)” value is given as 41.2%.
As to `Nc1ccc(-c2cc3ccc(C4=NCCN4)cc3[nH]2)cc1` [NSC 369715, 4-(6-(4,5-dihydro-1H-imidazol-2-yl)-1H-indol-2-yl)phenylamine], the inhibition at 20 µM in assay [1] was determined as 56.8%.

For the origin of these results see patent US7999001B2 (priority 2007, dated 2011).
